Data: patent US20080081781A1, “Methods and compositions for the treatment of metabolic syndrome” (priority 2004, published 2008)
Where two headings read alike, the source gives them in different places.

Tests used:
[1] = Toxicity analysis (LD50) in mice; details: mouse, in vivo
Experimental: Rats and mice were administered berberine through a variety of techniques, including orally, through subcutaneous injection, peritoneal injection and intravenous injection.

[2] = system: patients with type 2 diabetes; assay type: in vivo, human
Excerpt: Ninety-seven hyperglycemic patients (54 males and 43 females) with fasting blood glucose>7 mmol/L and post-prandial blood glucose>11.1 mmol/L were enrolled in a study at the Nanjing First Hospital in Nanjing, China. The patients were asked to end any current treatments for hyperglycemia at least 2 weeks prior to commencement of the study.
Fifty of the patients (male/female, 27/23; age 57±8y) were randomly assigned to be given 0.5 gram twice a day (1g/day total) of berberine (Nanjing Second Pharmaceutics, Inc., Nanjing, China), orally for 2 months. Out of these 50 patients, 25 had hyperlipidemia, 9 had hypertension and 2 had cardiovascular disease. Twenty-six patients (male/female, 15/11; age 56±11 y) were given 1.5 grams of metformin (Double-Crane Pharmaceutical, Inc., Beijing, China) per day, orally for two months. Of these twenty-six patients, 11 had hyperlipidemia, and four had hypertension. The remaining twenty-one patients (male/female, 11/10, age 49±10 y) were given 4 mg per day of rosiglitazone (Glaxowelcome, UK), orally for two months. Of these 21 patients, ten had hyperlipidemia and four had hypertension. Metformin and rosiglitazone served as reference controls as they are standard treatments for type 2 diabetes.
Blood samples were taken prior to the commencement of therapy and after completion of the therapy.

HepG2 cells = assay: Glucose consumption of HepG2 cells with insulin, with or without InsR siRNA; assay type: cell-based, human; details: […] berberine, 0.5 nM insulin, 12 hr
Experimental: Human InsR siRNA duplex, non-specific control siRNA, siRNA transfection reagent and siRNA transfection medium were obtained from Santa Cruz Biotechnology, Inc. (Santa Cruz, Calif.) and the vendor's siRNA transfection procedure was followed. Briefly, HepG2 cells were seeded onto six-well plates in antibiotic-free RPMI-1640 medium containing 10% fetal bovine serum (FBS). After 60-80% confluence of monolayer, FBS containing medium was discarded and cells were washed with siRNA transfection medium (2 mVwell). 0.8 ml of siRNA transfection medium containing 6 μl of human InsR siRNA duplex (or control siRNA) and 6 ld^1 of siRNA transfection reagent were well mixed at room temperature for 30 min, followed by loading onto washed HepG2 cells. After an 8 hr incubation, the transfection mixture was removed and fresh RPMI-1640 medium supplied with 10% FBS was added. The cells were then incubated for 24 hr. Then, the culture medium was replaced with fresh medium and incubated for an additional 24 hr. At the end of incubation, FBS containing medium was removed and replaced with serum-free fresh RPMI-1640 medium. […] After 12 hr incubation, the amount of glucose in the sample medium was determined. The glucose consumption was calculated according to the following formula: glucose level of the fresh RPMI-1640 minus glucose level of the used RPMIN-1640. […]

InsR mRNA = assay: Rat liver InsR and LDLR mRNA (quantitative real time RT-PCR); assay type: in vivo; details: rats, 14 days
Experimental: The livers were dissected and stored in liquid nitrogen for RNA extraction, real-time RT-PCR and PKC activity assay. Total blood samples were also collected to assay fasting blood glucose and serum insulin levels. The insulin levels were analyzed using radio-immunoassay (Linco Research, St Charles, Mo.). The insulin sensitivity indexes (ISI) were calculated according to the formula: 10^4/(fasting serum insulin X fasting blood glucose) (Hanson, Am. J. Epidemiol. 15 1(2), 190-198 (2000)). The insulin level and ISI of normal rats were also determined for comparison. […] It also elevated the fasting blood glucose from 7 to 12.8 mmol/L (P<0.001).
Liver mRNA extracts were used for quantitative real time RT-PCR assay. Total cellular RNA was reverse-transcribed into cDNA using the Reverse Transcription System (Promega, Madison, Wis.). Quantitative real-time PCR were performed with these cDNA using the Applied Biosystems 7500 Real-Time PCR System and TaqMan® Universal PCR Master Mix (Applied Biosystems, Foster City, Calif.). […] 2.5 μl of cDNA sample, 12.5 μl of Universal PCR Master Mix, and 1.25 μl of TaqMan® Gene Expression Assay reagent were mixed in a 25 μl reaction system, and the comparative CT method was used in relative gene quantification using the TaqMan® SDS analysis software. […]

InsR gene promoter = assay: InsR promoter activity, pGL3-1.5kIRP transfected HepG2 cells; assay type: cell-based, human; details: pGL3-1.5kIRP transfected HepG2, 10 μg/ml, 8 h
Experimental: The InsR promoter luciferase gene fusion plasmid (pGL3-1.5kIRP) was kindly provided by Dr. Araki E of the Graduate School of Medical Sciences, Kumamoto University, Honjo, Kumamoto, Japan.
After overnight incubation, the cells were treated with DMSO as the solvent control or with 0, 1, 2.5, 5, 7.5 and 10 μg/ml berberine for 8 h. Cell lysates were prepared and luciferase activities were measured using the Luciferase Reporter Gene Assay (Roche Applied Science). The experiment was repeated 4 times.

LDLR mRNA = LDLR mRNA levels in Bel-7402 cells (quantitative RT-PCR); assay type: cell-based, human
Experimental: Bel-7402 cells were treated with 0, 0.5, 1, 2.5, 5, μg/ml of berberine or 2.5, 7.5 and 15 μg/ml of berberine sulfate. The cells were then centrifuged and washed and LDLR mRNA was extracted. LDLR mRNA levels were then measured using scan quantitative RT-PCR, (FIGS. 3 A and B).

[3] = patients with type 2 diabetes, After treatment (2 months), oral: berberine 1 g/day, metformin 1.5 g/day, rosiglitazone 4 mg/day, Mean ± SE
[4] = patients with type 2 diabetes, Before treatment (baseline), Mean ± SE
[5] = type 2 diabetes patients, 1 g/day orally, 2 months

`COc1ccc2cc3[n+](cc2c1OC)CCc1cc2c(cc1-3)OCO2` [berberine] showed an LD50 ([1]; intraperitoneal, peritoneal injection) of 30 to 32.2 mg/kg, an LD50 ([1]; intravenous injection) of 7.6 to 10.2 mg/kg and an LD50 ([1]; sc, subcutaneous injection) of 13.9 to 20 mg/kg. The serum insulin levels ([2]; after treatment, normal range 2.5-13 mlU/L) was “decreased into the normal range”, the ALT after treatment ([2]; human, in vivo) was 23±16 and the BUN after treatment ([2]; human, in vivo) was 5.7±1.2. It also gave a Cr after treatment ([2]; human, in vivo) of 71±14, a r-GT after treatment ([2]; human, in vivo) of 31±23 and a HbA1c [2, 3] of 6.8 ± 0.2 %. The Triglyceride [2, 3] was 1.4 ± 0.1 mmol/L, the “FBG (fasting blood glucose)” value [2, 4] was 10.4 ± 0.4 mmol/L and the HbA1c [2, 4] was 8.0 ± 0.3%. For the same compound, the Triglyceride [2, 4] was 1.7 ± 0.1 mmol/L, the “reduction of serum cholesterol” value ([2]; type 2 diabetes patients of berberine group (50% also had hyperlipidemia)) was 24% and the “lowering of fasting blood glucose” value [2, 5] was 26%. The “lowering of hemoglobin A1c (HbA1c)” value [2, 5] was 18%, the lowering of triglycerides [2, 5] was 18% and the “glucose consumption of human hepatic cells treated with insulin” value (HepG2 cells) was “significantly increased”. For the same compound, the “increase in InsR mRNA in the livers” value (InsR mRNA; 75 mg/kg/day) was 1.8 fold, the “increase in InsR mRNA in the livers” value (InsR mRNA; 150 mg/kg/day) was 2.3 fold and the “elevation of Luc mRNA level” value (InsR gene promoter) was 2.5 fold. For the same compound, the “increase of LDLR mRNA expression” value (LDLR mRNA; 5 μg/ml) was 2.3 fold and the “LDLR mRNA expression, dose dependence” value (LDLR mRNA; berberine 0.5-5 μg/ml, berberine sulfate 2.5, 7.5, 15 μg/ml) was “increased LDLR mRNA expression in a dose dependent fashion”.
